Experimental data as given in patent US7507717B2 (Xenome Ltd., priority 2002, dated 2009).
Residues, ends and D or L forms follow the SMILES beside them.

Target: T1, human noradrenaline transporter (hNET) (Homo sapiens, UniProt P23975)
T1 construct: expressed in transfected cells; host or cells: COS-7 cells (ATCC), transient transfection with metafectene
Test: biochemical
Format: binding
Conditions: for IC50: Av IC50 Displacement of 3H-nisoxetine from hNET

T1 sequence (P23975 whole entry): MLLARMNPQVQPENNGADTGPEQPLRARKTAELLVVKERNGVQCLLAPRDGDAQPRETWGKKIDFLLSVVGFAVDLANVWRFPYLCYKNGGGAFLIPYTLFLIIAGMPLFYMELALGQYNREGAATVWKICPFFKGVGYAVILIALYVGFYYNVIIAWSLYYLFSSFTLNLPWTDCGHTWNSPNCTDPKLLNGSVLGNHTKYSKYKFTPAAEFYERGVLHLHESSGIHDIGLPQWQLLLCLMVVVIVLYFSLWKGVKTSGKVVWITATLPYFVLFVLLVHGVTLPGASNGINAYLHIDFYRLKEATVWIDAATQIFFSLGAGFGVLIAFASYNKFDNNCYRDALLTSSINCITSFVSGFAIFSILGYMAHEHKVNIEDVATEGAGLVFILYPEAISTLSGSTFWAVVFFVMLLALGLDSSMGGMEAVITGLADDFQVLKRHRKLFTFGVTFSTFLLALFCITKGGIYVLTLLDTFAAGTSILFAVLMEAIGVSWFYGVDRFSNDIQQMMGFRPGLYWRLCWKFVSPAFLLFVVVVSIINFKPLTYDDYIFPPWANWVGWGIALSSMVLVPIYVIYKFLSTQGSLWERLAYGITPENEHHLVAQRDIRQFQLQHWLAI

Question: CC(C)C[C@@H]1NC(=O)[C@H](Cc2c[nH]cn2)NC(=O)[C@H](Cc2ccc(O)cc2)NC(=O)CNC(=O)[C@@H]2CSSC[C@H](NC1=O)C(=O)N[C@@H](Cc1c[nH]cn1)C(=O)N1CCC[C@H]1C(=O)N[C@H](C(N)=O)CSSC[C@H](NC(=O)[C@@H](NC(=O)CNC(=O)[C@@H](N)CC(N)=O)C(C)C)C(=O)N2 [compound 181] (HELM PEPTIDE1{N.G.V.C.C.G.Y.H.L.C.H.P.C.[am]}$PEPTIDE1,PEPTIDE1,4:R3-13:R3|PEPTIDE1,PEPTIDE1,5:R3-10:R3$$$V2.0) was tested. Which IC50 did it give?
Answer: 47.9 µM

Question: How did the IC50 turn out when CC(C)C[C@@H]1NC(=O)[C@H](CCCCN)NC(=O)[C@H](Cc2ccc(O)cc2)NC(=O)[C@@H](CCC(=O)O)NC(=O)[C@@H]2CSSC[C@H](NC1=O)C(=O)N[C@@H](Cc1c[nH]cn1)C(=O)N1CCC[C@H]1C(=O)N[C@H](C(N)=O)CSSC[C@H](NC(=O)[C@@H](NC(=O)CNC(=O)[C@@H](N)CC(N)=O)C(C)C)C(=O)N2 [compound 183] was run?
Answer: 61.7 µM

Question: Which IC50 does the source give for CC(C)C[C@@H]1NC(=O)[C@H](CCCCN)NC(=O)[C@H](CC(N)=O)NC(=O)CNC(=O)[C@@H]2CSSC[C@H](NC1=O)C(=O)N[C@@H](Cc1c[nH]cn1)C(=O)N1CCC[C@H]1C(=O)N[C@H](C(N)=O)CSSC[C@H](NC(=O)[C@@H](NC(=O)CNC(=O)[C@H](CC(N)=O)NC(=O)[C@@H](N)Cc1ccc(O)cc1)C(C)C)C(=O)N2 [compound 184] (HELM PEPTIDE1{Y.N.G.V.C.C.G.N.K.L.C.H.P.C.[am]}$PEPTIDE1,PEPTIDE1,5:R3-14:R3|PEPTIDE1,PEPTIDE1,6:R3-11:R3$$$V2.0) here?
Answer: 79.4 µM

Question: How did the IC50 turn out when CC(C)C[C@@H]1NC(=O)[C@H](CCC(N)=O)NC(=O)[C@H](Cc2ccc(O)cc2)NC(=O)CNC(=O)[C@@H]2CSSC[C@H](NC1=O)C(=O)N[C@@H](Cc1c[nH]cn1)C(=O)N1CCC[C@H]1C(=O)N[C@H](C(N)=O)CSSC[C@H](NC(=O)[C@@H](NC(=O)CNC(=O)[C@@H](N)CC(N)=O)C(C)C)C(=O)N2 [compound 194] (HELM PEPTIDE1{N.G.V.C.C.G.Y.Q.L.C.H.P.C.[am]}$PEPTIDE1,PEPTIDE1,4:R3-13:R3|PEPTIDE1,PEPTIDE1,5:R3-10:R3$$$V2.0) was run?
Answer: 123 µM

Question: CC(C)C[C@@H]1NC(=O)[C@H](CCCCN)NC(=O)[C@H](CCC(=O)O)NC(=O)CNC(=O)[C@@H]2CSSC[C@H](NC1=O)C(=O)N[C@@H](Cc1c[nH]cn1)C(=O)N1CCC[C@H]1C(=O)N[C@H](C(N)=O)CSSC[C@H](NC(=O)[C@@H](NC(=O)CNC(=O)[C@H](CC(N)=O)NC(=O)[C@@H](N)Cc1ccc(O)cc1)C(C)C)C(=O)N2 [compound 195] (HELM PEPTIDE1{Y.N.G.V.C.C.G.E.K.L.C.H.P.C.[am]}$PEPTIDE1,PEPTIDE1,5:R3-14:R3|PEPTIDE1,PEPTIDE1,6:R3-11:R3$$$V2.0) was tested. Which IC50 did it give?
Answer: 170 µM

Question: CC(C)[C@H](NC(=O)CNC(=O)[C@@H](N)CC(N)=O)C(=O)N[C@H]1CSSC[C@@H](C(N)=O)NC(=O)[C@@H]2CCCN2C(=O)[C@H](Cc2c[nH]cn2)NC(=O)[C@@H]2CSSC[C@H](NC1=O)C(=O)NCC(=O)N[C@@H](Cc1ccc(O)cc1)C(=O)N[C@@H](CCCCN)C(=O)N[C@@H](CCCCN)C(=O)N2 [compound 196] (HELM PEPTIDE1{N.G.V.C.C.G.Y.K.K.C.H.P.C.[am]}$PEPTIDE1,PEPTIDE1,4:R3-13:R3|PEPTIDE1,PEPTIDE1,5:R3-10:R3$$$V2.0) was tested. Which IC50 did it give?
Answer: 182 µM

Question: For CC(C)C[C@@H]1NC(=O)[C@H](CCCCN)NC(=O)[C@H](CCCCN)NC(=O)CNC(=O)[C@@H]2CSSC[C@H](NC1=O)C(=O)N[C@@H](Cc1c[nH]cn1)C(=O)N1CCC[C@H]1C(=O)N[C@H](C(N)=O)CSSC[C@H](NC(=O)[C@@H](NC(=O)CNC(=O)[C@H](CC(N)=O)NC(=O)[C@@H](N)Cc1ccc(O)cc1)C(C)C)C(=O)N2 [compound 201] (HELM PEPTIDE1{Y.N.G.V.C.C.G.K.K.L.C.H.P.C.[am]}$PEPTIDE1,PEPTIDE1,5:R3-14:R3|PEPTIDE1,PEPTIDE1,6:R3-11:R3$$$V2.0), which IC50 is on record?
Answer: 437 µM

Question: YNGVCCGYILCHPC [compound 208] was tested. Which “Av IC50 Displacement of 3H-nisoxetine from hNET” value (from here on “Av IC50 Displacement”) did it give?
Answer: −2.00

Question: For YNGVCCGYKDCHPC [compound 209], which “Av IC50 Displacement” value is on record?
Answer: −2.00

Question: For YNGVCCGYKLCEPC [compound 210], which “Av IC50 Displacement” value is on record?
Answer: −2.00
